From patent US7897582B2, “Oligonucleotide compositions and methods for the modulation of the expression of B7 protein” (Isis Pharmaceuticals, Inc., priority 2003, dated 2011)
Strand notation (5' to 3'): a small letter for the sugar, then the base; units joined by * are phosphorothioate-linked, units joined directly phosphodiester-linked; [ ] holds rarer units or linkages, { } end groups; capitals alone tell only the bases. e = 2'-O-(2-methoxyethyl) (MOE); [5mC] = 5-methylcytosine; d = 2'-deoxy (DNA)

Key:
human B7-2 = experiment: Cell surface expression of B7-2 in transfected COS-7 cells by flow cytometry; format: cell-based; details: for % Surface Inhibition / % Surface Expression: COS-7 cells, B7-2 cell surface; for % Surface Expression: basal = 100%; for % B7-2 EXPRESSION: human B7 cell surface expression, Table 16
Description: (§1) A T-175 flask was seeded at 75% confluency with COS-7 cells (ATCC accession No. CRL 1651). The plasmid pcB7-1 was introduced into cells by standard calcium phosphate transfection. Following a 4 hour transfection, the cells were trypsinized and seeded in 12-well dishes at 80% confluency. The cells were allowed to adhere to the plastic for 1 hour and were then washed with phosphate-buffered saline (PBS). OptiMEM™ (GIBCO-BRL, Gaithersburg, Md.) medium was added along with 15 μg/mL of Lipofectin™ (GIBCO-BRL, Gaithersburg, Md.) and oligonucleotide at the indicated concentrations. After four additional hours, the cells were washed with phosphate buffered saline (PBS) and incubated with fresh oligonucleotide at the same concentration in DMEM (Dulbecco et al., Virol., 1959, 8, 396; Smith et al., Virol., 1960, 12, 185) with 10% fetal calf sera (FCS).
(§2) In order to monitor the effects of oligonucleotides on cell surface expression of B7-1, treated COS-7 cells were harvested by brief trypsinization 24-48 hours after oligonucleotide treatment. The cells were washed with PBS, then resuspended in 100 μL of staining buffer (PBS, 0.2% BSA, 0.1% azide) with 5 μL conjugated anti-B7-1-antibody (i.e., anti-hCD80-FITC, Ancell, Bayport, Minn.; FITC: fluorescein isothiocyanate). The cells were stained for 30 minutes at 4° C., washed with PBS, resuspended in 300 μL containing 0.5% paraformaldehyde. Cells were harvested and the fluorescence profiles were determined using a flow cytometer.
In an initial screen, the ability of hB7-2 oligonucleotides to inhibit B7-2 expression was evaluated by measuring the cell surface expression of B7-2 in transfected COS-7 cells by flow cytometry. The methods used were similar to those given in Example 2, with the exceptions that (1) COS-7 cells were transfected with the plasmids pbcB7-2 or BBG-58, a human ICAM-1 (CD54) expression vector (R&D Systems, Minneapolis, Minn.) introduced into cells by standard calcium phosphate transfection, (2) the oligonucleotides used were those described in Table 2, and (3) a conjugated anti-B7-2 antibody (i.e., anti-hCD86-FITC or anti-CD86-PE, PharMingen, San Diego, Calif.; PE: phycoerythrin) was used during flow cytometry.
(§3) B7 antisense oligonucleotides were tested for their effect on cell surface expression of both B7-1 and B7-2. Cell surface expression was measured as described in Example 1. Experiments were done for both human B7 and mouse B7.
The oligonucleotides were screened as described in Example 2 except that the concentration of oligonucleotide was varied as shown in Table 19.

human B7-1 = experiment: Cell surface expression of B7-1 in pcB7-1-transfected COS-7 cells by flow cytometry; format: cell-based; details: for % B7-1 EXPRESSION: human B7 cell surface expression, Table 16
Description: The ability of oligonucleotides to inhibit B7-1 expression was evaluated by measuring the cell surface expression of B7-1 in transfected COS-7 cells by flow cytometry.
as §1, §2, §3
The oligonucleotides were screened as described in Example 2 except that the concentration of oligonucleotide was varied as shown in Table 18.

hB7-2 mRNA = experiment: Ribonuclease protection assay of hB7-2 mRNA in transfected COS-7 cells; format: cell-based, human
In short: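 COS-7 cells transfected with hB7-2 were treated with antisense oligonucleotides at varied concentrations, mismatch controls included; RNA taken 18 h after treatment. 5 μg total RNA hybridised overnight at 42° C with 32P antisense probe (B7-2 positions 1044-1391) or beta-actin probe, RNase A/T1 digested, gel-resolved and quantified by phosphorimaging.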

Human B7-1 mRNA = Human B7-1 mRNA expression in electroporated, LPS-induced THP-1 cells; format: cell-based; details: THP-1 cells electroporated at 10 micromolar oligonucleotide, LPS 1 μg/ml 16 hours
Excerpt: The human promonocytic leukaemia cell line, THP-1 (American Type Culture Collection, Manassas, Va.) was maintained in RPMI 1640 growth media supplemented with 10% fetal calf serum (FCS; Life Technologies, Rockville, Md.). A total of 1×10^7 cells were electroporated at an oligonucleotide concentration of 10 micromolar in 2 mm cuvettes, using an Electrocell Manipulator 600 instrument (Biotechnologies and Experimental Research, Inc.) employing 200 V, 1000 μF. Electroporated cells were then transferred to petri dishes and allowed to recover for 16 hrs. Cells were then induced with LPS at a final concentration of 1 μg/ml for 16 hours. RNA was isolated and processed as described in previous examples.

[1] = COS-7 cells, B7-2 mRNA, oligonucleotide dose 10 nM
[2] = COS-7 cells, B7-2 mRNA, oligonucleotide dose 10 nM, basal = 100%
[3] = COS-7 cells, B7-2 mRNA, oligonucleotide dose 30 nM
[4] = COS-7 cells, B7-2 mRNA, oligonucleotide dose 30 nM, basal = 100%
[5] = COS-7 cells, B7-2 mRNA, oligonucleotide dose 100 nM
[6] = COS-7 cells, B7-2 mRNA, oligonucleotide dose 100 nM, basal = 100%
[7] = COS-7 cells, B7-2 mRNA, oligonucleotide dose 300 nM
[8] = COS-7 cells, B7-2 mRNA, oligonucleotide dose 300 nM, basal = 100%

22294 (eG*eG*eT*e[5mC]*e[5mC]*dA*dA*d[5mC]*dT*dG*dT*d[5mC]*d[5mC]*dG*dA*eA*eT*e[5mC]*eA*eA; antisense) [compound 22294]
% Surface Inhibition (human B7-2; dose 10 nM): 11%
% Surface Expression (human B7-2; dose 10 nM): 89%
% Surface Inhibition (human B7-2; dose 30 nM): 38%
% Surface Expression (human B7-2; dose 30 nM): 62%
% Surface Inhibition (human B7-2; dose 100 nM): 71%
% Surface Expression (human B7-2; dose 100 nM): 29%
% Surface Inhibition (human B7-2; dose 300 nM): 88%
% Surface Expression (human B7-2; dose 300 nM): 12%
% B7-2 EXPRESSION (human B7-2): 28%
% B7-1 EXPRESSION (human B7-1): 77%
% mRNA INHIBITION (hB7-2 mRNA; [1]): 7%
% mRNA EXPRESSION (hB7-2 mRNA; [2]): 93%
% mRNA INHIBITION (hB7-2 mRNA; [3]): 5%
% mRNA EXPRESSION (hB7-2 mRNA; [4]): 95%
% mRNA INHIBITION (hB7-2 mRNA; [5]): 42%
% mRNA EXPRESSION (hB7-2 mRNA; [6]): 58%
% mRNA INHIBITION (hB7-2 mRNA; [7]): 55%
% mRNA EXPRESSION (hB7-2 mRNA; [8]): 45%
% mRNA EXPRESSION (hB7-2 mRNA; human B7-2 mRNA, Table 12): 21%

22284 (eT*eG*e[5mC]*eG*eA*dG*d[5mC]*dT*d[5mC]*d[5mC]*d[5mC]*d[5mC]*dG*dT*dA*e[5mC]*e[5mC]*eT*e[5mC]*e[5mC]; antisense) [compound 22284]
% Surface Inhibition (human B7-2; dose 10 nM): 37%
% Surface Expression (human B7-2; dose 10 nM): 63%
% Surface Inhibition (human B7-2; dose 30 nM): 40%
% Surface Expression (human B7-2; dose 30 nM): 60%
% Surface Inhibition (human B7-2; dose 100 nM): 63%
% Surface Expression (human B7-2; dose 100 nM): 37%
% Surface Inhibition (human B7-2; dose 300 nM): 85%
% Surface Expression (human B7-2; dose 300 nM): 15%
% B7-2 EXPRESSION (human B7-2): 32%
% B7-1 EXPRESSION (human B7-1): 88%
% mRNA INHIBITION (hB7-2 mRNA; [1]): 8%
% mRNA EXPRESSION (hB7-2 mRNA; [2]): 92%
% mRNA INHIBITION (hB7-2 mRNA; [3]): 28%
% mRNA EXPRESSION (hB7-2 mRNA; [4]): 72%
% mRNA INHIBITION (hB7-2 mRNA; [5]): 41%
% mRNA EXPRESSION (hB7-2 mRNA; [6]): 59%
% mRNA INHIBITION (hB7-2 mRNA; [7]): 52%
% mRNA EXPRESSION (hB7-2 mRNA; [8]): 48%
% mRNA EXPRESSION (hB7-2 mRNA; human B7-2 mRNA, Table 12): 30%

ISIS 13872: scrambled control of ISIS 13812; SEQ ID NO: 52 (SEQ ID NO: 37) (antisense dA*dG*dT*dC*dC*dT*dA*dC*dT*dA*dC*dC*dA*dG*dC*dC*dG*dC*dC*dT) [reference compound]
effect on B7-2 expression (specificity) (human B7-2; FIG. 5): essentially no activity
effect on B7-1 expression (specificity) (human B7-1; FIG. 5): essentially no activity

113498 (antisense eG*eA*eA*eA*eG*dA*d[5mC]*d[5mC]*dA*dG*d[5mC]*d[5mC]*dA*dG*d[5mC]*eA*e[5mC]*e[5mC]*eA*eA) [compound 113498]
% mRNA EXPRESSION (Human B7-1 mRNA): 37%
% mRNA INHIBITION (Human B7-1 mRNA): 63%

113499 (antisense e[5mC]*eA*eG*e[5mC]*eG*dT*dT*dG*d[5mC]*d[5mC]*dA*d[5mC]*dT*dT*d[5mC]*eT*eT*eT*e[5mC]*eA) [compound 113499]
% mRNA EXPRESSION (Human B7-1 mRNA): 25%
% mRNA INHIBITION (Human B7-1 mRNA): 75%

113496 (antisense eG*eA*eT*eG*eG*dT*dG*dA*dT*dG*dT*dT*d[5mC]*d[5mC]*d[5mC]*eT*eG*e[5mC]*e[5mC]*eT) [compound 113496]
% mRNA EXPRESSION (Human B7-1 mRNA): 71%
% mRNA INHIBITION (Human B7-1 mRNA): 29%

113517 (antisense eA*eA*eA*eG*eG*dA*dG*dA*dG*dG*dG*dA*dT*dG*d[5mC]*e[5mC]*eA*eG*e[5mC]*e[5mC]) [compound 113517]
% mRNA EXPRESSION (Human B7-1 mRNA): 201%
